Data reported in patent US10231954B2, “Neurodegenerative therapies” (LYTIX BIOPHARMA AS, priority 2014, dated 2019).
Where two headings read alike, the source gives them in different places.

Tests used:
Format in all cases: biochemical
MARK4 = target: T1, MARK4 (Homo sapiens, UniProt Q96L34); assay: Kinase profiling MARK4; conditions: for remaining activity at 100 µM: read-out: residual kinase activity, MARK4
T1 sequence (Q96L34 1-752): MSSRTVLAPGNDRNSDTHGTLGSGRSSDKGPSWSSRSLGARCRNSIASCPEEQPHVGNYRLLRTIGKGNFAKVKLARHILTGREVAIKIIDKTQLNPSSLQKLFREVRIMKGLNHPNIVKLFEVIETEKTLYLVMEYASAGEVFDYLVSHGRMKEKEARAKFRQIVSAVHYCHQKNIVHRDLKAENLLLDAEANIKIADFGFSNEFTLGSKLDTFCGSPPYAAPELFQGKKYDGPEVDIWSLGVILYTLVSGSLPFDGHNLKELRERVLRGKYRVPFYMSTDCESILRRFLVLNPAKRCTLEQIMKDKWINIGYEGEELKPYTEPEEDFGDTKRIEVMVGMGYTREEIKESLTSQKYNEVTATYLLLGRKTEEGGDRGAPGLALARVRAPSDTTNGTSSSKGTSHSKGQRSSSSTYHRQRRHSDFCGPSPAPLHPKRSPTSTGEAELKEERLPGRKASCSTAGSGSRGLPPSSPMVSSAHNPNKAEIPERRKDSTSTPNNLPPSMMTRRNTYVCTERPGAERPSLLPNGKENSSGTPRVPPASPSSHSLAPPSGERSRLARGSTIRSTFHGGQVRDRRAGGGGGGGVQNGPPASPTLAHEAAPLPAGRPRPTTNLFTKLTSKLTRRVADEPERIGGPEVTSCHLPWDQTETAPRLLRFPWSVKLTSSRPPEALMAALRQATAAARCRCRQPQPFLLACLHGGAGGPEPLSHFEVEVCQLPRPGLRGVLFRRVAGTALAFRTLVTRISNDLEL
Excerpt: (§1) Any value less that 25 is considered to be highly significant inhibition.

MNK1 = MNK1 (Homo sapiens, UniProt Q9BUB5); assay: Kinase profiling MNK1; conditions: for remaining activity at 100 µM: read-out: residual kinase activity, MNK1
Excerpt: as §1

IRAK1 = IRAK1 (Homo sapiens, UniProt P51617); assay: Kinase profiling IRAK1; conditions: for remaining activity at 100 µM: read-out: residual kinase activity, IRAK1
Excerpt: as §1

PAK5 = PAK5 (Homo sapiens, UniProt Q9P286); assay: Kinase profiling PAK5; conditions: for remaining activity at 100 µM: read-out: residual kinase activity, PAK5
Excerpt: as §1

EPH-B2 = target: T2, EPH-B2 (Homo sapiens, UniProt P29323); assay: Kinase profiling EPH-B2; conditions: for remaining activity at 100 µM: read-out: residual kinase activity, EPH-B2
T2 sequence (P29323 19-1055): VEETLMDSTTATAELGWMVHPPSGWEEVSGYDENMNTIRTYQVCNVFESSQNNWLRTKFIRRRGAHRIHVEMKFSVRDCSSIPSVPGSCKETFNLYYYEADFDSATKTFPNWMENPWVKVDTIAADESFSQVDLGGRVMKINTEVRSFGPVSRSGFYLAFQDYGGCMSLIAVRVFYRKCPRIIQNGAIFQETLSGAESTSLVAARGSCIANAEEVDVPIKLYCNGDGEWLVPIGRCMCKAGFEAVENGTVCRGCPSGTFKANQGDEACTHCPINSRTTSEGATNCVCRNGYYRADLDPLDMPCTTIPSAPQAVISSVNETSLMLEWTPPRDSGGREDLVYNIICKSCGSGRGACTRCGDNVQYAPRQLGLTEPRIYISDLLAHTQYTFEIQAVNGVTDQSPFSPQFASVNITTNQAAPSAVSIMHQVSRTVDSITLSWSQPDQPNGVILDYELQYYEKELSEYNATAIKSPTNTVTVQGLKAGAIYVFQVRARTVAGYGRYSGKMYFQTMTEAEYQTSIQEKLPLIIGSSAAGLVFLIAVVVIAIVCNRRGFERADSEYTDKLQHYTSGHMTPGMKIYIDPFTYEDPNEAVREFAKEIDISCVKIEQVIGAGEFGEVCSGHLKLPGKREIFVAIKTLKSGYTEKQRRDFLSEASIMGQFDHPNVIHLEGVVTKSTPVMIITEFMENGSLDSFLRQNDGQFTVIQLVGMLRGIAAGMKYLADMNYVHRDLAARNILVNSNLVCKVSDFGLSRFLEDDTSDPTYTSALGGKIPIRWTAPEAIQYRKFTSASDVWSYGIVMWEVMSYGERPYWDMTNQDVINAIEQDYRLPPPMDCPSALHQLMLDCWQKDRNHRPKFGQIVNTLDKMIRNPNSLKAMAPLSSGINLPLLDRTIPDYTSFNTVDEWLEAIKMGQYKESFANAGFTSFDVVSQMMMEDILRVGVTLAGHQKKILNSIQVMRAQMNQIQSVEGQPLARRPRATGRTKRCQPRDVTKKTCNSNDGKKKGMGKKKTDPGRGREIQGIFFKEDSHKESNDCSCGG
Excerpt: as §1

NUAK1 = target: T3, NUAK1 (Homo sapiens, UniProt O60285); assay: Kinase profiling NUAK1; conditions: for remaining activity at 100 µM: read-out: residual kinase activity, NUAK1
T3 sequence (O60285 1-661): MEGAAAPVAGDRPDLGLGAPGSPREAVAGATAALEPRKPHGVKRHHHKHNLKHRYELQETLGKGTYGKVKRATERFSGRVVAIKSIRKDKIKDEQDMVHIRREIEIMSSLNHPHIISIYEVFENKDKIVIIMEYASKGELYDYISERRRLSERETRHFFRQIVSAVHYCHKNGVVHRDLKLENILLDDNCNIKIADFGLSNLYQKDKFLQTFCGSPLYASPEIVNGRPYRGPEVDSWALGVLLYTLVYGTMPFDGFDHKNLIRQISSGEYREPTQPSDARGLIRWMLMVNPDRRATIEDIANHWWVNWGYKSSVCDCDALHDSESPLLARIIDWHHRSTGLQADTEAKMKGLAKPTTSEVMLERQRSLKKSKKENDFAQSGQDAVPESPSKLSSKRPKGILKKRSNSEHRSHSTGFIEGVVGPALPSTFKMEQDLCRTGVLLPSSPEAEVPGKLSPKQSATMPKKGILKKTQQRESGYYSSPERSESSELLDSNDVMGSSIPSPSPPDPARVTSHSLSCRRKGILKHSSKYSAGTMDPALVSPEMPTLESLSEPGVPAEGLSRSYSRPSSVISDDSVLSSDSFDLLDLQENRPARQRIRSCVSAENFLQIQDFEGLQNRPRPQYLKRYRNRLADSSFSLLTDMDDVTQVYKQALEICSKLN
Excerpt: as §1

[1] = 100 micromolar inhibitor concentration, 100 is no change
[2] = 100 micromolar inhibitor, 100 = no change

Sequence of MNK1 (Q9BUB5 whole entry, species assumed): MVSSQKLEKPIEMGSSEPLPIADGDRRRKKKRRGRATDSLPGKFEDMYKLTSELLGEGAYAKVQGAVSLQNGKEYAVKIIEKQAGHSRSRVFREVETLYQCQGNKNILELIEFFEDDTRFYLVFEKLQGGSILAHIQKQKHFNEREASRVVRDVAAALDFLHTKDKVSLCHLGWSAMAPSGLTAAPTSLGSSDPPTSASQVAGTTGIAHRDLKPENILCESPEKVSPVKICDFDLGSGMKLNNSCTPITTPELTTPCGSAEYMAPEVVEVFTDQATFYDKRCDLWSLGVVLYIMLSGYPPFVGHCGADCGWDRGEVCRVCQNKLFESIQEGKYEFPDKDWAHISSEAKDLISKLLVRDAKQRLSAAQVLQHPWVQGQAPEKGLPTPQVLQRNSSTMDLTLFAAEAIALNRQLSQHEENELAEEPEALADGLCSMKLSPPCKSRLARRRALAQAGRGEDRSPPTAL
Sequence of PAK5 (Q9P286 whole entry): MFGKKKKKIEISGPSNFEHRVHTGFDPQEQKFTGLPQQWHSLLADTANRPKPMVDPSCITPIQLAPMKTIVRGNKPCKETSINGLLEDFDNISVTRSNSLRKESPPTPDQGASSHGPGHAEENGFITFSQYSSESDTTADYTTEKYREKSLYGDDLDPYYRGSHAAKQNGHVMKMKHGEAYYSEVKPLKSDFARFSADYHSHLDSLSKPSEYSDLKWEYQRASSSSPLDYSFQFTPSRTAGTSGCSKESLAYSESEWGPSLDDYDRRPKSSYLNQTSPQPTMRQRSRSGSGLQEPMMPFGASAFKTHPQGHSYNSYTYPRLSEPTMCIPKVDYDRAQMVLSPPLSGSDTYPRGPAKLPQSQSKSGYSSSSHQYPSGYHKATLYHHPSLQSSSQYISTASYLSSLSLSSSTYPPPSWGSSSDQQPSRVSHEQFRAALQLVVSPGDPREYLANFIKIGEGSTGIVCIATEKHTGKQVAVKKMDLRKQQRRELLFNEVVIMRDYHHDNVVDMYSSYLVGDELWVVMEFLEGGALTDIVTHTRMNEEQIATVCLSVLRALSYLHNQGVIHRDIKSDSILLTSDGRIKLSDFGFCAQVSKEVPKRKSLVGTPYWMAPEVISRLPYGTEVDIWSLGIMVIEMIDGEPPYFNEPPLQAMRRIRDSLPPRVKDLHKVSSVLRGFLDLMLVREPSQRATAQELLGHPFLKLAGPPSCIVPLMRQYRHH
Sequence of IRAK1 (P51617 whole entry, species assumed): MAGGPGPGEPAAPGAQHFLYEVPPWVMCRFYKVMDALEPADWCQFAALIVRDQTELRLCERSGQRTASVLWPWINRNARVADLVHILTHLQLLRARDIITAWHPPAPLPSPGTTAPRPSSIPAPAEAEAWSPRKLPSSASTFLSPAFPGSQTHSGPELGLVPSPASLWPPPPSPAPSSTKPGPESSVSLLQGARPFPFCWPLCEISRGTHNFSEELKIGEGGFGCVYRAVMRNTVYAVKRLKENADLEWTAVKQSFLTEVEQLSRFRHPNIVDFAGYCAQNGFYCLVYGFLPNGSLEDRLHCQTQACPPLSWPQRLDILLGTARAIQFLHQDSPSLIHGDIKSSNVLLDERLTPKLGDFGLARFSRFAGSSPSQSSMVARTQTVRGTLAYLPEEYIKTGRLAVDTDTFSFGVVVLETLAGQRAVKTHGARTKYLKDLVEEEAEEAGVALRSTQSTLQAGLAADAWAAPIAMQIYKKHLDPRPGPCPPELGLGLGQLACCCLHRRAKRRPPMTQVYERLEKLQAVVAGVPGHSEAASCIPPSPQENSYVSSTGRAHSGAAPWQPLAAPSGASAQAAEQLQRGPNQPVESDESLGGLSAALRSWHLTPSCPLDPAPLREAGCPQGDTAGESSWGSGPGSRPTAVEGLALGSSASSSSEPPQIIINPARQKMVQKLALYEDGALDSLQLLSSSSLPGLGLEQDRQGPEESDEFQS

SMILES | residual kinase activity, MARK4 (MARK4; [1]) | residual kinase activity, MNK1 (MNK1; [1]) | residual kinase activity, IRAK1 (IRAK1; [1]) | residual kinase activity, PAK5 (PAK5; [1]) | residual kinase activity, EPH-B2 (EPH-B2; [1]) | residual kinase activity, NUAK1 (NUAK1; [1]) | remaining activity at 100 µM (MARK4; [1]) [%] | remaining activity at 100 µM (MNK1; [1]) [%] | remaining activity at 100 µM (IRAK1; [1]) [%] | remaining activity at 100 µM (PAK5; [1]) [%] | remaining activity at 100 µM (EPH-B2; [1]) [%] | remaining activity at 100 µM (NUAK1; [1]) [%] | further results
O=C(Nc1nc2cc(O)ccc2s1)c1ccncc1 [Compound 03-11] | 102 | 45 | 68 | 92 | 89 | 86 |  |  |  |  |  |  | 
CC(=O)Nc1nc2cc(C)ccc2s1 [Compound 03-76] | 80 | 81 | 59 | 107 | 108 | 58 |  |  |  |  |  |  | 
CC(=O)Nc1nc2cc(O)ccc2s1 [Compound 01-66, N-(5-hydroxybenzo[d]thiazol-2-yl)acetamide] |  |  |  |  |  |  |  |  |  |  |  |  | remaining activity at 100 µM (MARK4): 80%; remaining activity at 100 µM (MNK1): 17%; remaining activity at 100 µM (IRAK1): 29%; remaining activity at 100 µM (PAK5): 72%; remaining activity at 100 µM (EPH-B2): 70%; remaining activity at 100 µM (NUAK1): 44%
CC(=O)Nc1nc2ccc(C(F)(F)F)cc2s1 [Compound 01-90] |  |  |  |  |  |  | 66 | 65 | 43 | 82 | 38 | 66 | 
CC(=O)Nc1nc2ccc(O)cc2s1 [Compound 01-71] |  |  |  |  |  |  | 66 | 28 | 26 | 85 | 59 | 26 | 
O=C(Nc1nc2ccc(O)cc2s1)c1ccccc1 [Compound 03-60] | 67 | 18 | 26 | 70 | 78 | 14 |  |  |  |  |  |  | 
CC(=O)Nc1nc2ccc(C#N)cc2s1 [Compound 01-94] |  |  |  |  |  |  | 51 | 47 | 11 | 70 | 42 | 46 | 
COc1ccc2sc(NC(C)=O)nc2c1 [Compound 03-21] |  |  |  |  |  |  | 100 | 77 | 45 | 110 | 96 | 84 | 
O=C(Nc1nc2ccc(O)cc2s1)c1ccncc1 [Compound 08-42] | 82 | 53 | 38 | 79 | 99 | 57 |  |  |  |  |  |  | 
CC(=O)Nc1cccc(NC(=O)c2nc3ccc(O)cc3s2)c1 [Compound 03-07, N-(3-acetamidophenyl)-6-hydroxybenzo[d]thiazole-2-carboxamide] |  |  |  |  |  |  |  |  |  |  |  |  | remaining activity at 100 µM (MARK4; [2]): 71%; remaining activity at 100 µM (MNK1; [2]): 40%; remaining activity at 100 µM (IRAK1; [2]): 49%; remaining activity at 100 µM (PAK5; [2]): 82%; remaining activity at 100 µM (EPH-B2; [2]): 110%; remaining activity at 100 µM (NUAK1; [2]): 37%
O=C(Nc1nc2cc(O)ccc2s1)c1ccccn1 [Compound 03-13] | 71 | 100 | 38 | 82 | 72 | 64 |  |  |  |  |  |  | 
O=C(Nc1nc2ccc(O)cc2s1)c1ccccn1 [Compound 03-12] | 90 | 67 | 37 | 94 | 103 | 52 |  |  |  |  |  |  | 
O=C(Nc1nc2ccc(O)cc2s1)c1cccnc1 [Compound 08-44] | 77 | 19 | 37 | 88 | 91 | 39 |  |  |  |  |  |  | 
CC(=O)Nc1nc2cc(C(F)(F)F)ccc2s1 [Compound 03-73] |  |  |  |  |  |  | 97 | 89 | 85 | 85 | 98 | 74 | 
CC(=O)Nc1nc2ccccc2s1 [Compound 03-32] | 91 | 89 | 65 | 74 | 116 | 74 |  |  |  |  |  |  | 
CC(=O)Nc1nc2cc(F)ccc2s1 [Compound 03-77] |  |  |  |  |  |  | 86 | 64 | 46 | 111 | 114 | 66 | 
O=C(Nc1nc2cc(O)ccc2s1)c1cccnc1 [Compound 03-33] | 95 | 21 | 57 | 109 | 99 | 68 |  |  |  |  |  |  | 
